Results as given in ChEMBL document CHEMBL3351690, “Design, synthesis and structure--activity relationship (SAR) studies of imidazo[4,5-b]pyridine derived purine isosteres and their potential as cytotoxic agents” (Eur J Med Chem, 2015).

Experiments:
MDA-MB-231 [1] = experiment: Cytotoxicity against paclitaxel-resistant human MDA-MB-231 cells after 24 hrs by MTT assay; type: functional, cell-based; conditions: MDA-MB-231, 24 h
[2] = Stability in human liver microsomes at 1 uM pre-incubated for 5 mins in presence of NADPH and measured after 45 mins by LC/MS method; type: ADME; conditions: read-out: Stability
[3] = Stability in mouse liver microsomes at 1 uM pre-incubated for 5 mins in presence of NADPH and measured after 45 mins by LC/MS method; type: ADME; conditions: read-out: Stability
MDA-MB-231 [4] = experiment: Inhibition of cell proliferation of paclitaxel-resistant human MDA-MB-231 cells at 10 uM after 24 hrs by MTT assay; type: functional; conditions: MDA-MB-231, 24 h
[5] = Cytotoxicity against human MDA435 cells after 24 hrs by MTT assay; type: functional, cell-based; conditions: MDA-MB-435, 24 h
[6] = Cytotoxicity against human HL60 cells after 24 hrs by MTT assay; type: functional, cell-based; conditions: HL-60, 24 h
[7] = Cytotoxicity against human MES-SA cells after 24 hrs by MTT assay; type: functional, cell-based
[8] = Cytotoxicity against human MES-SA/Dx5 cells after 24 hrs by MTT assay; type: functional, cell-based; conditions: MES-SA/Dx5, 24 h

SMILES	IC50 (MDA-MB-231 [1]) [nM]	also measured
c1ccc(-c2nc3cccnc3n2C2CCCC2)cc1	3000	–
Cn1ccc2cc(-c3nc4cccnc4n3C3CCCC3)ccc21	90	–
FC(F)(F)c1cc(-c2nc3cccnc3n2C2CCCC2)cc(C(F)(F)F)c1	112	–
Fc1cccc(-c2nc3cccnc3n2C2CCCCC2)c1	342	–
c1cncc(-c2ccc(-c3nc4cccnc4n3C3CCCC3)cc2)c1	> 10000	–
Cc1ccsc1-c1nc2cccnc2n1C1CCCC1	138	–
Fc1ccc(-c2nc3cccnc3n2C2CCCC2)cc1	500	–
c1cnc2c(c1)nc(-c1cncnc1)n2C1CCCC1	> 10000	–
O=C(NCc1ccccc1)c1ccc(-c2nc3cccnc3n2C2CCCC2)cc1	620	–
COc1ncc(-c2nc3cccnc3n2C2CCCC2)c(OC)n1	> 10000	–
Cc1ccc(-c2nc3cccnc3n2C2CCCCC2)cc1	7000	–
CN(C)C(=O)c1ccc(-c2nc3cccnc3n2C2CCCC2)cc1	520	–
COc1ccc(-c2nc3cccnc3n2C2CCCC2)cn1	219	–
COC(=O)c1ccc(-c2nc3cccnc3n2C2CCCC2)cc1	350	remaining at 0.75 h, 1 µM [2]: 52%; remaining at 0.75 h, 1 µM [3]: 52%; inhibition at 10 µM (MDA-MB-231 [4]): 25%
Cc1cccc(-c2nc3cccnc3n2C2CCCC2)c1Cl	646	–
O=C(O)c1ccc(-c2nc3cccnc3n2C2CCCC2)cc1	600	remaining at 0.75 h, 1 µM [2]: 80%; remaining at 0.75 h, 1 µM [3]: 80%
FC(F)(F)Oc1cccc(-c2nc3cccnc3n2C2CCCC2)c1	262	–
Fc1cc(F)cc(-c2nc3ncccc3n2C2CCCCC2)c1	3800	–
c1ccc(-c2nc3ncccc3n2C2CCCC2)cc1	7000	–

SMILES	IC50 (MDA-MB-231 [1]) [nM]	also measured
c1cnc2c(c1)nc(-c1ccc(-c3nnco3)cc1)n2C1CCCC1	87	–
NC(=O)c1ccc(-c2nc3cccnc3n2C2CCCC2)cc1	8000	–
Cc1nnc(-c2ccc(-c3nc4cccnc4n3C3CCCC3)cc2)o1	21	IC50 [5]: 28 nM; IC50 [6]: 70 nM; IC50 [7]: 25 nM; IC50 [8]: 80 nM; remaining at 0.75 h, 1 µM [2]: 75%; remaining at 0.75 h, 1 µM [3]: 75%; inhibition at 10 µM (MDA-MB-231 [4]): 77.3%
CN(C)c1cccc(-c2nc3cccnc3n2C2CCCC2)c1	455	–
O=C(NC1CC1)c1ccc(-c2nc3cccnc3n2C2CCCC2)cc1	115	remaining at 0.75 h, 1 µM [2]: 42%; remaining at 0.75 h, 1 µM [3]: 42%; inhibition at 10 µM (MDA-MB-231 [4]): 42%
CCS(=O)(=O)c1cccc(-c2nc3cccnc3n2C2CCCCC2)c1	164	–
COc1ccc(-c2nc3cccnc3n2C2CCCCC2)cc1	112	–
CC(=O)O[C@H]1C(=O)[C@@]2(C)[C@H]([C@H](OC(=O)c3ccccc3)[C@]3(O)C[C@H](OC(=O)[C@H](O)[C@@H](NC(=O)c4ccccc4)c4ccccc4)C(C)=C1C3(C)C)[C@]1(OC(C)=O)CO[C@@H]1C[C@@H]2O [PACLITAXEL]	457	IC50 [6]: 7 nM; IC50 [7]: 8 nM; IC50 [8]: 5100 nM
Cn1c(-c2cc(F)cc(F)c2)nc2ncccc21	2700	–
c1ccc(Oc2ccc(-c3nc4cccnc4n3C3CCCC3)cc2)cc1	> 10000	–
c1ccc(Cn2nccc2-c2nc3cccnc3n2C2CCCC2)cc1	348	–
N#Cc1ccc(-c2nc3cccnc3n2C2CCCC2)cc1F	2000	–
CCNC(=O)c1ccc(-c2nc3cccnc3n2C2CCCC2)cc1	320	–
Cn1c(-c2ccccc2)nc2cccnc21	4100	–
Cc1cc(-c2nc3cccnc3n2C2CCCC2)cnc1F	70	–
c1cnc2c(c1)nc(-c1ccc3c(c1)OCC3)n2C1CCCC1	513	–
Fc1cc(F)cc(-c2nc3cccnc3n2C2CCCC2)c1	138	–
CN(C)c1ncc(-c2nc3cccnc3n2C2CCCC2)cn1	45	–
c1cnc2c(c1)nc(-c1ccc(-c3nnn[nH]3)cc1)n2C1CCCC1	765	–
